{"source": "patent US20040102606A1", "about": "“Histone H2A -derived peptides useful in gene delivery” (priority 2003, published 2004)", "key": {"[1]": {"system": "COS7 cells", "settings": "polymers in equimolar ratios to their representation in histone H2A; cited from earlier work"}, "[2]": {"system": "COS-7 cells", "assay": "Transfection assay (β-galactosidase reporter plasmid pCMVβ complexed with H2A-derived peptide)", "format": "cell-based, African green monkey", "settings": "for transfection activity (DNA delivery) at the 17-mer's own optimal concentration: much higher molar ratio than 36-mer; for transfection activity (β-galactosidase production): peptide at equimolar ratio to peak conditions of peptide 1 (36-mer), also 2× and ½× molar, FIG. 1", "description": "The transfection assay is based on an in vitro assay previously described by J. H. Felgner et al. (Feigner et al., Proc. Natl. Acad. Sci., USA, 84:7413-7417, […]) with the following modifications: COS-7 (African green monkey SV40-transformed kidney cells, American Type Culture Collection, Rockville, Md.) were maintained in Dulbecco's modified eagle's medium (Biowhittaker, Walkersville, Md.) supplemented with 10% heat inactivated fetal bovine serum (Gemini Bio-products Inc., Calabras, Calif.), […] glutamine (Gemini Bio-products Inc., Calabras, Calif.), and 100U Penicillin-100 μg Streptomycin (Gemini Bio-products Inc., Calabras, Calif.). Other cells useful for transfection are 3T3, CHO-K1, HEPG2 and the like cell lines. The cells were harvested with 0.05% Trypsin-0.53 mM EDTA4Na (Life Technologies, Gaithersburg, Md.), pelleted, resuspended in their usual culture medium, diluted in 0.85% NaCl (Sigma, St. Louis, Mo.), and counted in a Coulter Z1® apparatus (Coulter Corporation, Miami, Fla.). COS-7 cells were plated in 96-well flat bottom tissue culture treated polystyrene plates (Corning Inc., Corning, N.Y.) at a density of […] cells per well and grown overnight in a humidified incubator at 37° C. in the presence of 4% CO2. Culture medium was aspirated from the overnight cultures of COS-7 cells, and the cells were overlaid with 75 μl/well of the binary DNA-histone H2A-derived peptide complex, or the corresponding controls. Four hours after transfection, 37.5 μl of Opti-MEM®1, a Tris-Acetate-based (Life Technologies, Gaithersburg, Md.) containing 30% heat inactivated fetal bovine serum (Gemini Bio-products Inc., Celebres, Calif.) was added to each well. Twenty-four hours post-transfection […] of Opti-MEM®1 containing 10% heat inactivated fetal bovine serum (Gemini Bio-products Inc., Celebres, Calif.) was added to each well Forty-eight hours post-transfection, all of the medium in each well was removed. Fifty μl of lysis buffer (0.1% Triton X-100, […] Tris pH 8.0) was added to each well. The plates were then frozen at −70° C. and thawed once. Fifty μl of phosphate-buffered saline (PBS) pH 7.4 was added to each well except for the last column The last column was reserved for a β-galactosidase standard curve. […] In the presence of β-galactosidase, D-galactose is released from CPRG, yielding chlorophenol red; the red reaction product was used to quantitate the amount of β-galactosidase produced. […] The plates were read in a Thermomax plate reader (Molecular Devices Incorporated, Sunnyvale, Calif.) at 575 nm. The optical density values obtained in test wells were then compared to those in the column containing the β-galactosidase standard and the result was expressed as the quantity of β-galactosidase produced per well. […]"}, "[3]": {"system": "COS-7 cells", "assay": "X-gal staining of transfected cells", "format": "cell-based, African green monkey", "description": "The difference between one of the effective peptides (amino acids 1-36) and the peptide composed of the first 25 amino acids is the inclusion of an α-helical motif located between amino acids 27-35."}, "[4]": {"assay": "Circular dichroism", "format": "physicochemical", "settings": "70 μM in 120 mM Tris acetate pH 8; 200-260 nm", "description": "Circular dichroism experiments were performed using a Circular Dichroism Spectrometer (model 62DS) at wavelengths ranging from 200-260 nm In all cases, three readings were taken of a 300 μl sample of 70 μM histone H2A or 70 μM histone H2A-derived peptide in 120 mM Tris acetate pH 8. The average reading for every wavelength tested is plotted as a function of degrees of ellipticity.\nCircular dichroism of peptide was performed on four samples: the full length histone H2A molecule, peptide 1 (36-mer), peptide P1 (17-mer) and peptide 12."}}}
{"compound": "NCCCNCCCCNCCCN", "note": "[spermine]", "values": [{"measurement": "transfection (β-galactosidase reporter plasmid)", "setting": "[1]", "value": "ineffective"}]}
{"compound": "NCCCCNCCCN", "note": "[spermidine]", "values": [{"measurement": "transfection (β-galactosidase reporter plasmid)", "setting": "[1]", "value": "ineffective"}]}
{"compound": "P1: 17-mer that represents amino acids 18-34 of the histone H2A molecule (RSSRAGLQFPVGRVHRL; UniProt P0C0S8 18-34, looked up, fragment) [Peptide P1]", "values": [{"measurement": "transfection activity (DNA delivery) at the 17-mer's own optimal concentration", "setting": "[2]; FIG. 2", "value": "effective in DNA transfection and delivery"}, {"measurement": "transfection activity (DNA delivery) at the 17-mer's own optimal concentration", "setting": "[2]; FIG. 2, listed as 17-mer", "value": "active in DNA delivery"}, {"measurement": "transfection activity (β-galactosidase production)", "setting": "[2]", "value": "only background activity"}, {"measurement": "COS-7 cells transfected (X-gal staining)", "setting": "[3]", "value": "less than 1%"}, {"measurement": "circular dichroism, α-helical structure (minima at 208 and 222 nm)", "setting": "[4]", "value": "some degree of minima at around 208"}]}
{"compound": "KTRSSRAGLQFPVGRVHRIIRK [Peptide 5R]", "values": [{"measurement": "transfection activity (β-galactosidase production)", "setting": "[2]", "value": "significant activity"}]}
